Test results taken from patent US20220267352A1, “RAPAMYCIN ANALOGS AND USES THEREOF” (Anakuria Therapeutics, Inc., priority 2021, published 2022).

What was measured:
Type in all cases: cell-based
[1] = tested on: p-p70 S6 Kinase (Thr389) in MCF-7 cells; test: AlphaLISA Ultra pS6K1 assay; settings: Homo sapiens, 1.5 h; MCF7 cells, 90 min
In short: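 Phospho-S6K1 (Thr389) quantified by AlphaLISA Ultra read-out (2 h acceptor, then 2 h donor beads) in lysates of MCF-7 cells. Cells were plated 20–24 h before, refed 2 h, exposed to compounds for 90 min at 0.5% final DMSO, and lysates stored at −80 °C.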

[2] = tested on: p-Akt 1/2/3 (Ser473) in MCF-7 cells; test: AlphaLISA Ultra pAKT assay; settings: Homo sapiens, 1.5 h; MCF7 cells, 90 min
In short: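 MCF-7 cells (16,000˜20,000 per well in 36 μL medium) were seeded in Corning 3701 plates for 20˜24 hour, refreshed with new medium for 90 minutes, then given 12 μL of 4× compound (0.5% final DMSO). Cells were lysed with 2× lysis buffer, and lysate was analyzed by AlphaLISA Ultra pAKT using acceptor and donor beads, read on an EnSpire reader.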

mTORC1 over mTORC2 = mTORC1 over mTORC2 selectivity by comparing pS6K1 and pAKT IC50; settings: by comparing pS6K1 and pAKT IC50, 90 min
Experimental: Assay Protocol: • 1. Seed MCF-7 cells in Corning 3701 plate and incubate for 20˜24 hour. 12,000˜16,000 cells will be seeded in 36 μL medium per well. • 2. Change the culture medium with fresh medium and incubate for another 2 hours. • 3. Add 12 μL (4×) compounds into the cell plate by HAMILTON. Final DMSO concentration is 0.5%. Incubate for 90 minutes. • 4. Aspirate 38 μL by HAMILTON, 10 μL rest per well. • 5. Add 10 μL 2× lysis buffer using HAMILTON; total volume in wells is 20 μL. Allow cells to shake for 30 min. Cover plate by plastic foil and store plate at −80° C. up to analysis. • 6. Thaw cell lysate at RT and transfer 10 μL lysate to assay plate (Optiplate-384). • 7. Add 5 μL acceptor beads into assay plate and incubation for 2 hours • 8. Add 5 μL donor beads and incubation for 2 hours • 9. Count the plate by EnSpire Multimode Plate Reader […]
Compounds that are not selective by comparing pS6K1 and pAKT IC50 by kinase assays are indicated by “NO” in the “mTORC1 selective @ 90 min” column of Table 4. […] Compounds that are not selective at the 24 hrs mark are indicated by “NO” in the “mTORC1 selective @ 24 hrs” column of Table 4. “N/A” stands for “not assayed” and “N/C” stands for “not calculated”.

| SMILES | IC50 [1] [nM] | IC50 [2] [nM] | mTORC1 selective @ 90 min (mTORC1 over mTORC2) |
| --- | --- | --- | --- |
| COCCOCCO[C@@H]1C[C@@H]2CC[C@@H](C)[C@@](O)(O2)C(=O)C(=O)N2CCCC[C@H]2C(=O)O[C@H]([C@H](C)C[C@@H]2CC[C@@H](OCCO)[C@H](OC)C2)CC(=O)[C@H](C)/C=C(\C)[C@@H](OC)[C@@H](OC)C(=O)[C@H](C)C[C@H](C)/C=C/C=C/C=C/1C [I-36, (23E,25E,27E,28E,36R,37S,38R,39R,41S,43S,45R,46S,47R,48R,57R)-57-hydroxy-46-[(1R)-2-[(1S,3R,4R)-4-(2-hydroxyethoxy)-3-methoxy-cyclohexyl]-1-methyl-ethyl]-47,48-dimethoxy-45-[2-(2-methoxyethoxy)ethoxy]-36,37,38,39,49,50-hexamethyl-66,67-dioxa-58-azatricyclohexatriaconta-23,25,27(49),28(50)-tetraene-51,52,53,54,55-pentone] | 1 to 10 | ≥ 1000 | Yes |
| CO[C@@H]1/C(C)=C/[C@@H](C)C(=O)C[C@@H]([C@H](C)C[C@@H]2CC[C@@H](OC)[C@H](OC)C2)OC(=O)[C@@H]2CCCCN2C(=O)C(=O)[C@]2(O)O[C@@H](CC[C@H]2C)C[C@@H](OCC2COCCO2)/C(C)=C/C=C/C=C/[C@@H](C)C[C@@H](C)C(=O)[C@@H]1OC (stereo partly drawn) [I-39, (26E,28E,30E,31E,34R,35S,36R,37R,39S,41S,43R,44S,46R,47R,56R)-44-[(1R)-2-[(1S,3R,4R)-3,4-dimethoxycyclohexyl]-1-methyl-ethyl]-43-(1,4-dioxan-2-ylmethoxy)-56-hydroxy-46,47-dimethoxy-34,35,36,37,48,49-hexamethyl-66,67-dioxa-57-azatricyclohexatriaconta-26,28,30(48),31(49)-tetraene-50,51,52,53,54-pentone] | 100 to 1000 | ≥ 1000 | Yes |
| COCCS(=O)(=O)CCO[C@@H]1C[C@@H]2CC[C@@H](C)[C@@](O)(O2)C(=O)C(=O)N2CCCC[C@H]2C(=O)O[C@H]([C@H](C)C[C@@H]2CC[C@@H](OC)[C@H](OC)C2)CC(=O)[C@H](C)/C=C(\C)[C@@H](OC)[C@@H](OC)C(=O)[C@H](C)C[C@H](C)/C=C/C=C/C=C/1C [I-42, (24E,26E,28E,29E,35R,36S,37R,38R,40S,42S,44R,45S,46R,47R,56R)-45-[(1R)-2-[(1S,3R,4R)-3,4-dimethoxycyclohexyl]-1-methyl-ethyl]-56-hydroxy-46,47-dimethoxy-44-[2-(2-methoxyethylsulfonyl)ethoxy]-35,36,37,38,48,49-hexamethyl-66,67-dioxa-57-azatricyclohexatriaconta-24,26,28(48),29(49)-tetraene-50,51,52,53,54-pentone] | 10 to 100 | ≥ 1000 | Yes |
| CO[C@@H]1/C(C)=C/[C@@H](C)C(=O)C[C@@H]([C@H](C)C[C@@H]2CC[C@@H](OCCCO)[C@H](OC)C2)OC(=O)[C@@H]2CCCCN2C(=O)C(=O)[C@]2(O)O[C@@H](CC[C@H]2C)C[C@@H](OCCOC2COC2)/C(C)=C/C=C/C=C/[C@@H](C)C[C@@H](C)C(=O)[C@@H]1OC [I-44, (23E,25E,27E,28E,35R,36S,37R,38R,40S,42S,44R,45S,47R,48R,57R)-47,57-dihydroxy-45-[(1R)-2-[(1S,3R,4R)-4-(3-hydroxypropoxy)-3-methoxy-cyclohexyl]-1-methyl-ethyl]-48-methoxy-35,36,37,38,49,50-hexamethyl-44-[2-(oxetan-3-yloxy)ethoxy]-68,69-dioxa-58-azatricyclohexatriaconta-23,25,27(49),28(50)-tetraene-51,52,53,54,55-pentone] | 1 to 10 | ≥ 1000 | Yes |
| COCCOCCO[C@@H]1C[C@@H]2CC[C@@H](C)[C@@](O)(O2)C(=O)C(=O)N2CCCC[C@H]2C(=O)O[C@H]([C@H](C)C[C@@H]2CC[C@@H](O)[C@H](OC)C2)CC(=O)[C@H](C)/C=C(\C)[C@@H](OC)[C@@H](OC)C(=O)[C@H](C)C[C@H](C)/C=C/C=C/C=C/1C [I-48, (23E,25E,27E,28E,34R,35S,36R,37R,39S,41S,43R,44S,45R,46R,55R)-55-hydroxy-44-[(1R)-2-[(1S,3R,4R)-4-hydroxy-3-methoxy-cyclohexyl]-1-methyl-ethyl]-45,46-dimethoxy-43-[2-(2-methoxyethoxy)ethoxy]-34,35,36,37,47,48-hexamethyl-64,65-dioxa-56-azatricyclohexatriaconta-23,25,27(47),28(48)-tetraene-49,50,51,52,53-pentone] | 1 to 10 | ≥ 1000 | Yes |
| CO[C@@H]1/C(C)=C/[C@@H](C)C(=O)C[C@@H]([C@H](C)C[C@@H]2CC[C@@H](OC)[C@H](OC)C2)OC(=O)[C@@H]2CCCCN2C(=O)C(=O)[C@]2(O)O[C@@H](CC[C@H]2C)CC(OCCOC2COC2)/C(C)=C/C=C/C=C/[C@@H](C)C[C@@H](C)C(=O)[C@@H]1OC (stereo partly drawn) [I-50, (25E,27E,29E,30E,34R,35S,36R,37R,39S,41S,44S,46R,47R,56R)-44-[(1R)-2-[(1S,3R,4R)-3,4-dimethoxycyclohexyl]-1-methyl-ethyl]-56-hydroxy-46,47-dimethoxy-34,35,36,37,48,49-hexamethyl-43-[2-(oxetan-3-yloxy)ethoxy]-65,66-dioxa-57-azatricyclohexatriaconta-25,27,29(48),30(49)-tetraene-50,51,52,53,54-pentone] | 1 to 10 | ≥ 1000 | Yes |
| CO[C@@H]1/C(C)=C/[C@@H](C)C(=O)C[C@@H]([C@H](C)C[C@@H]2CC[C@@H](OP(C)(C)=O)[C@H](OC)C2)OC(=O)[C@@H]2CCCCN2C(=O)C(=O)[C@]2(O)O[C@@H](CC[C@H]2C)CC(OCCOC2COC2)/C(C)=C/C=C/C=C/[C@@H](C)C[C@@H](C)C(=O)[C@@H]1OC (stereo partly drawn) [I-75, (1R,2R,4S)-4-((2R)-2-((3S,6R,7E,9R,10R,12R,14S,15E,17E,19E,23S,26R,27R,34aS)-27-hydroxy-9,10-dimethoxy-6,8,12,14,20,26-hexamethyl-21-(2-(oxetan-3-yloxy)ethoxy)-1,5,11,28,29-pentaoxo-1,4,5,6,9,10,11,12,13,14,21,22,23,24,25,26,27,28,29,31,32,33,34,34a-tetracosahydro-3H-23,27-epoxypyrido[2,1-c][1]oxa[4]azacyclohentriacontin-3-yl)propyl)-2-methoxycyclohexyl dimethylphosphinate] | ≥ 1000 | ≥ 1000 | Yes |
| COCCO[C@@H]1CC[C@@H](C[C@@H](C)[C@@H]2CC(=O)[C@H](C)/C=C(\C)[C@@H](O)[C@@H](OC)C(=O)[C@H](C)C[C@H](C)/C=C/C=C/C=C(\C)C(OC[C@@H]3COCCO3)C[C@@H]3CC[C@@H](C)[C@@](O)(O3)C(=O)C(=O)N3CCCC[C@H]3C(=O)O2)C[C@H]1OC (stereo partly drawn) [I-76, (1R,9S,12S,15R,16E,18R,19R,21R,23S,24E,26E,28E,32S,35R)-30-[[(2S)-1,4-dioxan-2-yl]methoxy]-1,18-dihydroxy-19-methoxy-12-[(1R)-2-[(1S,3R,4R)-3-methoxy-4-(2-methoxyethoxy)cyclohexyl]-1-methyl-ethyl]-15,17,21,23,29,35-hexamethyl-11,36-dioxa-4-azatricyclo[30.3.1.0^4,9]hexatriaconta-16,24,26,28-tetraene-2,3,10,14,20-pentone] | < 1 | ≥ 1000 | Yes |
| CO[C@@H]1C[C@H](C[C@@H](C)[C@@H]2CC(=O)[C@H](C)/C=C(\C)[C@@H](O)[C@@H](OC)C(=O)[C@H](C)C[C@H](C)/C=C/C=C/C=C(\C)[C@H](OCCOC3COC3)C[C@@H]3CC[C@@H](C)[C@@](O)(O3)C(=O)C(=O)N3CCCC[C@H]3C(=O)O2)CC[C@H]1OP(C)(C)=O [I-77, (1R,9S,12S,15R,16E,18R,19R,21R,23S,24E,26E,28E,30R,32S,35R)-12-[(1R)-2-[(1S,3R,4R)-4-dimethylphosphoryloxy-3-methoxy-cyclohexyl]-1-methyl-ethyl]-1,18-dihydroxy-19-methoxy-15,17,21,23,29,35-hexamethyl-30-[2-(oxetan-3-yloxy)ethoxy]-11,36-dioxa-4-azatricyclo[30.3.1.0^4,9]hexatriaconta-16,24,26,28-tetraene-2,3,10,14,20-pentone] | 10 to 100 | ≥ 1000 | Yes |
